Results published in patent publication US20240335395A1, “COMPOSITIONS AND METHODS FOR PREVENTING AND/OR TREATING DISEASE ASSOCIATED WITH IL-23 EXPRESSION” (ALLSPIM, priority 2021, published 2024).

Tests used:
[1] = test system: IL-17/IL-23 and TNF signature cytokines and chemokines; assay: Release of IL-17/IL-23 and TNF signature cytokines and chemokines into supernatant of LPS-stimulated THP-1 cells (ELISA); assay type: cell-based, human; details: 24 h
Experimental: (§1) Sample Collection and Preparation. THP-1 cells, a human leukemia monocyte-derived cell line, have been widely used as a model to study the modulation of the immune response and the function of monocytes and monocyte-derived macrophages. Here, lipopolysaccharide (LPS)-stimulated THP-1 cells were used as a model to study the cytokine storm in vitro (Chanput et al., 2014). THP-1 cells (purchased from American Type Culture Collection, Rockville, MD) were grown in RPMI 1640 culture medium (Gibco) supplemented with 10% fetal bovine serum (FBS) (Gibco, UK), 0.05 mM 2-mercaptoethanol, and 1% penicillin/streptomycin (Invitrogen) at 37° C. in 5% CO2 in a humidified incubator. Cultured cells were plated into culture plates in appropriate volumes with a cell density of 5×10^5 cells/ml. 2,4-D was purchased from Wuhan ChemFaces Biochemical Co., Ltd (Hubei, China) and tested for cytotoxicity in THP-1 cells overnight using a commercial MTT Cell Proliferation and Cytotoxicity Assay Kit (Beyotime, Shanghai, China). […]
ELISA. […] Culture supernatants were measured according to the manufacturer's instructions. A Varioskan LUX microplate reader (Thermo Fisher, USA) was used for the assay and 4-parameter logistic regression was used for data analysis. […] Data are expressed as mean±SD. […]

[2] = test system: MSU-induced knee joint edema; assay: MSU-induced knee joint edema in mice; assay type: in vivo, mouse; details: 20 h
Experimental: (§2) 2,4-D, isolated and purified from Chloranthus spicatus (purity≥98%), was purchased from BOC Science (Shirley, NY). Colchicine (CLC) (purity≥96%) and dexamethasone (DEX) (purity≥98%) were purchased from Sigma. Mice (six per group) were treated with 2,4-D (100 mg/kg or 20 mg/kg, i.p.), CLC (1 mg/kg or 0.2 mg/kg, i.p.), DEX (0.5 mg/kg or 0.1 mg/kg, i.p.), or vehicle (20% polyoxyethylenesorbitan monooleate (Tween 80) plus PBS) 30 min before intra-articular stimulus with MSU (100 μg/10 μL, i.a.). Six mice with intra-articular injection with PBS alone served as a negative control.
Preparation of monosodium urate crystal (MSU). MSU crystals were prepared as described previously (Ruiz-Miyazawa et al., 2017). Briefly, 800 mg of monosodium urate was dissolved in 155 ml of boiling milli-Q water containing 2N NaOH. After pH adjustment to 8.9, the solution was cooled gradually by stirring at room temperature and crystallized overnight at 4° C. Crystals were collected, and centrifuged at 3,000×g for 2 min at 4° C. The crystals were evaporated and sterilized by heating at 180° C. for 2 h and stored in a sterile environment until use. The load of endotoxin present in the MSU crystals was determined using a ToxinSensor^TM Single Test Kit (GenScript).
(§3) Induction of MSU-Induced Knee Joint Inflammation. Male ICR (CD-1) mice (35-45 g, 10-12 weeks) were purchased from VitalRiver Inc (Beijing, China) and were kept in an animal care facility under controlled temperature of 21±1° C., humidity, and on a light/dark cycle, with ad libitum access to water and standard laboratory chow diet. Animal care and handling procedures were approved by the Animal Ethics Committee of GZUCM (Guangzhou University of Chinese Medicine). All efforts were made to minimize animal suffering and to reduce the number of animals used. Joint inflammation was induced by the intra-articular (i.a.) administration of MSU (200 μg/20 μl) into the right and left knee joints of mice under inhaled 3% isoflurane anesthesia. Control animals received an injection (i.a.) of sterile PBS (20 μL).
Evaluation of Knee Joint Edema. Knee joint edema was determined with a caliper (Mitutoyo) before (zero time), and after the intra-articular injection with MSU at the times indicated. Knee joint edema was determined for each mouse by the difference between the time points indicated on figures and the zero time (Ruiz-Miyazawa et al, 2017). The edema value is represented as Amm/joint.
Statistical Analysis. Data were analyzed using GraphPad Prism statistical software (GraphPad Software, Inc., United States-500.288, version 5.0). Results are presented as means±SEM or SD of measurements made on 6 mice per group, with statistical significance determined by two-way ANOVA, comparing each group to the control (“Model”) group. For in vitro experiments, microassays were performed in quadruplicate. p<0.05 was considered significant (*p<0.05, **p<0.01, ***p<0.001).

[3] = test system: MSU-induced leukocyte recruitment; assay: MSU-induced leukocyte recruitment to the synovial cavity of knee joint; assay type: in vivo, mouse; details: 20 h; 2,4-D 100 mg/kg, CLC 1 mg/kg, DEX 0.5 mg/kg
Experimental: as §2, §3
Histopathological Analysis. Knee joint was collected 20 h after MSU injection, fixed with 10% paraformaldehyde in PBS, and then decalcified for 10 days with EDTA and embedded in paraffin for histological analysis. […] Results are expressed as leukocytes infiltrate (cell/field) counted at the inflammatory foci within synovial cavity as indicative of synovitis. […]
Statistical Analysis. Data were analyzed using GraphPad Prism statistical software (GraphPad Software, Inc., United States-500.288, version 5.0). Results are presented as means±SEM or SD of measurements made on 6 mice per group, with statistical significance determined by two-way ANOVA, comparing each group to the control (“Model”) group. […]

IL-1ß = assay: MSU-induced IL-1ß in knee joint tissue (multiplex microassay); assay type: in vivo, mouse; details: 2,4-D 100 mg/kg, CLC 1 mg/kg, DEX 0.5 mg/kg
Experimental: (§4) Mice (six per group) were treated with 2,4-D (100 mg/kg or 20 mg/kg, i.p.), CLC (1 mg/kg or 0.2 mg/kg, i.p.), DEX (0.5 mg/kg or 0.1 mg/kg, i.p.), or vehicle (20% polyoxyethylenesorbitan monooleate (Tween 80) plus PBS) 30 min before intra-articular stimulus with MSU (100 μg/10 μL, i.a.). Six mice with intra-articular injection with PBS alone served as a negative control.
as §3
(§5) Cytokine Measurement. Mice were anesthetized and sacrificed. Knee joints were collected and frozen in liquid nitrogen. Samples were then homogenized in 500 μl of buffer containing protease inhibitors, centrifuged (3600 rpm, 4° C., 15 min) and supernatants were used to determine Th1/Th2/Th17 cytokine levels using a multiplex microassay (Qantibody® mouse TH17 Array 1 kit, Cat. No.: QAM-TH17-1; RayBiotech, Norcross, GA). Results were expressed as picograms (pg) of cytokine/mg of tissue.
(§6) Statistical Analysis. […] For in vitro experiments, microassays were performed in quadruplicate. p<0.05 was considered significant (*p<0.05, **p<0.01, ***p<0.001).

IL-6 = assay: MSU-induced IL-6 in knee joint tissue (multiplex microassay); assay type: in vivo, mouse; details: 2,4-D 100 mg/kg, CLC 1 mg/kg, DEX 0.5 mg/kg
Experimental: as §4, §3, §5, §6

IL-10 = assay: MSU-induced IL-10 in knee joint tissue (multiplex microassay); assay type: in vivo, mouse; details: 2,4-D 100 mg/kg, DEX 0.5 mg/kg
Experimental: as §4, §3, §5, §6

TNF-alpha = assay: MSU-induced TNF-alpha in knee joint tissue (multiplex microassay); assay type: in vivo, mouse; details: 2,4-D 100 mg/kg, CLC 1 mg/kg, DEX 0.5 mg/kg
Experimental: as §4, §3, §5, §6

[4] = test system: IL-17/IL-23 and TNF signaling pathway-associated cytokine genes and chemokine genes; assay: Transcription of IL-17/IL-23 and TNF signature genes in LPS-stimulated THP-1 cells (qPCR); assay type: cell-based, human; details: 2 h; RPM 5-20 μM
Experimental: as §1
Real-Time Quantitative PCR. Real-time quantitative PCR was performed in triplicate using the TB Green qPCR master mix (Takara Biomedical Technology Co., Ltd, Dalian, China) on an ABI 7500 Real-Time PCR System (Thermo, USA). […] The ΔΔCT method was used to quantify relative mRNA levels as described above in Example 1 (Applied Biosystems). Data are expressed as mean±SD. […]

SMILES | reduction of release of IL-10, CCL2/MCP-1, CCL3/MIP-1alpha and CCL20/MIP-3alpha ([1]; DEX) | reduction of MSU-induced knee joint edema ([2]; high dose i.p.: 2,4-D 100 mg/kg, CLC 1 mg/kg, DEX 0.5 mg/kg) | reduction of MSU-induced knee joint edema ([2]; low dose i.p.: 2,4-D 20 mg/kg, DEX 0.1 mg/kg) | reduction of MSU-induced leukocyte recruitment [3] | decrease of IL-1ß in knee joint tissue (IL-1ß) | decrease of IL-6 in knee joint tissue (IL-6) | decrease of IL-10 in knee joint tissue (IL-10) | decrease of TNF-alpha in knee joint tissue (TNF-alpha) | inhibition of transcription of Tnf, Il1ß, Ccl2 and Ccl3 [4] | inhibition at 20 µM ([1]; Homo sapiens, THP-1, 20 μM, read-out: inhibition of release of IL-1ß, IL-10, TNF-alpha, CCL2/MCP-1, CCL3/MIP-1alpha and CCL20)
C[C@@H]1C[C@H]2[C@@H]3CCC4=CC(=O)C=C[C@]4(C)[C@@]3(F)[C@@H](O)C[C@]2(C)[C@@]1(O)C(=O)CO [DEX, dexamethasone] | 50-90% | 38.9% | 16.8% | 2.2 fold | 1.9 fold | no effect | 1.5 fold | 2.0 fold | – | –
CO[C@H]1C[C@@H]2CC[C@@H](C)[C@@](O)(O2)C(=O)C(=O)N2CCCC[C@H]2C(=O)O[C@H]([C@H](C)C[C@@H]2CC[C@@H](O)[C@H](OC)C2)CC(=O)[C@H](C)/C=C(\C)[C@@H](O)[C@@H](OC)C(=O)[C@H](C)C[C@H](C)/C=C/C=C/C=C/1C [Rapamycin, rapamycin, reference compound] | – | – | – | – | – | – | – | – | ≤ 50 fold | < 50%
